# Literature values as cited in patent US20100035978A1, “COMBINATION OF CANNABINOIDS FOR THE TREATMENT OF PERIPHERAL NEUROPATHIC PAIN” (GW Pharma Limited, priority 2005, published 2010).
# Tested on: patients taking carbamezepine
structure (smiles),measurement,setting,value
NC(=O)N1c2ccccc2C=Cc2ccccc21 [carbamezepine],increase in the risk of blood dyscrasias,post-marketing studies,five- to eight-fold
same,patients with a 25% decrease in white blood cell count,usually reverses within the first 4 months of therapy,7%
